Source: PubChem BioAssay AID2305 (GlaxoSmithKline (GSK), 2010)

Test system: P. falciparum 3D7 growth, pLDH absorbance
Test: P. falciparum 3D7 growth inhibition, dose response, strain 3D7 (AID 2305)

SMILES | IC50 [nM]
Cc1nn(-c2ccccc2)nc1C(=O)NC1CCN(CCNC(=O)c2ccc(Cl)c(Cl)c2)CC1 | 870
Oc1ccc(Cl)cc1CN1CCC(CCOC(c2ccccc2)c2ccc(Cl)cc2)CC1 (stereo not drawn) | 390
CCCNc1ccc2nccc(CCN3CCC(NCc4ccc5c(n4)NC(=O)CS5)CC3)c2n1 | 720
O=C(/C=C/c1ccc(Cl)c(Cl)c1)N1CCC(CN2CCC(c3c[nH]c4ccc(NS(=O)(=O)c5cccs5)cc34)CC2)CC1 | 220
Cn1ccc(C(=O)Nc2ccc3c(c2)CN(Cc2ccc(N4CCCC4)o2)CCC3)n1 | 1310
CC(C)(C)OC(=O)N[C@@H](CS(=O)(=O)CCN=C(N)COCc1ccccc1)C(=O)OC(C)(C)C | 820
CN(C)Cc1ccc(-c2cccc(Nc3nccc(NCC(O)c4ccccc4)n3)c2)cc1 (stereo not drawn) | 370
N=C(N)c1ccc(C(=O)Nc2cccc(C(=N)N)c2)cc1 | 1040
CC(C)(C)c1ccc(NC(=O)c2ccc(CN3CCCN(Cc4cccc(C#N)c4)CC3)cc2)cc1 | 640
CN1CCN(Cc2cccc(-c3ccc4c(Nc5ccc(Oc6ccccc6)cc5)ccnc4c3)c2)CC1 | 230
CN(C)CCN(C)Cc1cccc(-c2ccc3c(Nc4ccc(F)cc4Cl)ccnc3c2)c1 | 110
CCCC1N=C(N)N=C(N)N1c1ccc(C)c(C)c1 (stereo not drawn) | 70
Cc1[nH]c(C)c(-c2ccc(OCc3ccc(OC(F)(F)F)cc3)nc2)c(=O)c1Cl | 70
CCCN(CCC)CCOC(=O)C(OCC)(c1ccccc1)c1ccccc1 | 870
CCOC(=O)c1c(CN(CC)CC)n(-c2ccccc2)c2cc(Br)c(O)cc12 | 1000
O=C(Nc1ccc(N2CCN(C(=O)C=Cc3ccccc3)CC2)c(Cl)c1)c1ccc([N+](=O)[O-])o1 | 860
CC(Oc1ccc(NC(=O)c2cccs2)cc1)C(=O)c1ccc(Cl)cc1 (stereo not drawn) | 770
NC(N)=Nc1nc(-c2cccc(NC(=O)NCc3cccc4ccccc34)c2)cs1 | 840
Cc1c(Cn2nc(Cl)c(N3CCNCC3)cc2=O)cccc1NC(=O)Nc1ccc(-c2ccccc2)cc1 | 1380
Cc1nc(-c2ccc(-c3ccc(C(=O)Nc4ccc5c(c4)C4(CCNCC4)CO5)cc3)c(C)c2)no1 | 860
COc1cc2ncnc(Nc3ccc4nc(-c5ccccc5)[nH]c4c3)c2cc1OC | 440
CCc1c(C)nc(-n2nc(C)cc2NC(=O)C(CC)c2ccccc2)[nH]c1=O (stereo not drawn) | 710
Cc1cc(=O)c(-c2ccc(Oc3ccc(Cl)cc3Cl)cc2)c(C)[nH]1 | 840
Cc1ccc(NC(=O)c2ccc3ncccc3c2)cc1OC1CCN(Cc2ccsc2)C1 (stereo not drawn) | 800
C=CCN(c1nc(NC)nc(NCc2c(OC)cccc2OC)n1)C1CCCC1 | 1460

SMILES | IC50 [nM]
CCc1cc(NC2CCN(C)CC2)nc(Nc2ccc(C)cc2)n1 | 690
CC(C)NCc1ccc(-c2ccc(NC(=O)c3cccc(C#N)c3)cc2)cc1 | 650
COc1ccc(CC(=O)NC2CCN(c3ccnc4cc(Cl)ccc34)C2)cc1 (stereo not drawn) | 240
COC(=O)Cn1c(C2CCN(CC3CCC(NC(=O)/C=C/c4ccc(Cl)c(Cl)c4)CC3)CC2)nc2ccccc21 (stereo not drawn) | 1140
COc1cc(NC(=O)c2nn(CCCN3CCC4(CC3)C(=O)NCN4c3ccccc3)cc2-c2ccc(Cl)c(Cl)c2)cc(OC)c1OC | 750
CN(C(=O)NCCc1ccccc1)C1CCN(CCCCCNC(=O)/C=C/c2ccc(Cl)c(Cl)c2)CC1 | 680
COc1ccc2c(NN=Cc3ccccc3F)cc(C)nc2c1 | 1000
CCCOC(=O)C1=C(C)NC2=C(C(=O)CC(c3ccc(OC)c(OC)c3)C2)C1c1cccc(O)c1 (stereo not drawn) | 120
COc1ccc2ncc(Cl)c(CCN3CCC(NCc4ccc5c(n4)NC(=O)CO5)CC3)c2c1 | 470
CN(CCNCc1ccc(-c2cccc(-c3nc4ccccc4[nH]3)c2)cc1)S(C)(=O)=O | 950
Nc1nccc2ccc(-c3ccc(NC(=O)Nc4cc(C(F)(F)F)ccc4F)cc3)cc12 | 90
CC(C)(CNCc1ccc(Cl)cc1)c1nc(-c2ccc(Cl)c(O)c2)c(-c2ccncc2)[nH]1 | 480
COc1cccc(CN2CCCC(CCC(=O)Nc3ccc(C(F)(F)F)cc3)C2)c1O (stereo not drawn) | 750
COc1ccc2nccc([C@@H](O)CN3CCC(NC(=O)/C=C/c4ccc(F)c5ccccc45)CC3)c2c1 | 180
COc1cc2nc(N3CCC(CNC(=O)c4ccc(-c5ccc(C(=O)N(C)C)cc5O)cc4)CC3)nc(N)c2cc1OC | 280
Cc1cccc(-n2c(=O)c3c4c(sc3n3c(SCCC(C)C)nnc23)CCCC4)c1 | 760
COc1cc(NC(=O)c2ccc3c(=O)n(Cc4ccccc4)c(=S)[nH]c3c2)cc(OC)c1OC | 740
O=C(Nc1cccc(F)c1)N1CCC(CN2CCOC(c3ccccc3)(c3ccccc3)C2)CC1 | 200
COc1ccc2nccc([C@H](O)CN3CCC(NCc4cc(C)c5c(c4)OCCO5)CC3)c2n1 | 900
COc1ccc2c(c1)[nH]c1c(/C=C/c3ccc([N+](=O)[O-])cc3)nccc12 | 860
Cc1cc2c(NC(=O)NC3CCN(CCc4cccc(Cl)c4)CC3)cccc2cn1 | 370
N#Cc1ccc2c(c1)CCN(CCC1CCC(NC(=O)c3cc4cccc([N+](=O)[O-])c4[nH]3)CC1)C2 (stereo not drawn) | 680
CN(C)CCCNc1ccnc2cc(Cl)ccc12 | 280
COc1ccc(-c2nonc2NC(=O)c2ccc(OC(C)C)cc2)cc1OC | 630
N#Cc1cnc2cc(-c3cnc(CNCCN4CCOCC4)s3)ccc2c1Nc1ccc(Oc2ccccc2)cc1 | 730

SMILES | IC50 [nM]
O=[N+]([O-])c1cccc(CNC2CCN(Cc3ccc(Cl)c(Cl)c3)CC2)c1 | 460
CC(=O)N(C)c1cccc(CNc2cc(C)nc(Nc3ccc(C)cc3)n2)c1 | 1000
COc1cccc(CC(=O)N2CCC(n3c(C)nc4ccc(C)cc43)CC2)c1 | 110
COc1ccc(S(=O)(=O)N2CCCc3ccc(Br)cc32)cc1N1CCN(C(=O)C(Cl)(Cl)Cl)CC1 | 810
COc1ccc(-c2cnc3[nH]cc(-c4ccc(C(=O)O)cc4)c3c2)cn1 | 540
O=C(/C=C/c1ccc(Cl)c(Cl)c1)NCCCCN1CCCN(C(=O)Nc2ccc(F)c(Cl)c2)CC1 | 1510
COc1cc(Nc2ccnc3cc(-c4ccncc4)ccc23)cc(OC)c1OC | 1080
O=C(/C=C/c1ccc(F)cc1)NC1CCC(CCN2CCCN(c3ccc(C(F)(F)F)cn3)CC2)CC1 (stereo not drawn) | 1080
O=C(NCc1cccc2ccccc12)c1ccc(CNC2CCN(Cc3ccccc3)CC2)cc1 | 840
CCCCOc1cc2[nH]cc(C(=O)OCC)c(=O)c2cc1OCCCC | 200
CC(=O)N(Cc1cccc(-c2cccc(CNCc3ccc4c(c3)OCO4)c2)c1)C1CCN(Cc2ccccc2)CC1 | 840
O=C(NCCSCc1c(F)cccc1Cl)c1cnc2c(c1)nc(-c1cnc(-c3ccccc3)[nH]1)n2CCc1cnc[nH]1 | 810
O=C(CC(=O)Nc1cc(Cl)cc(Cl)c1)Nc1cc(Cl)cc(Cl)c1 | 160
N#Cc1ccc(NC(=NC2CCCc3ccccc32)Nc2ccc(-c3ccccc3)cc2)c(O)c1 (stereo not drawn) | 780
COc1ccc(CCc2ccc(-c3c(C)[nH]c(C)c(Cl)c3=O)cc2)cc1 | 20
CC1CCCCN1CCCNC(=O)c1cccc(-c2cc3cc(Cl)c(Cl)cc3[nH]2)c1 (stereo not drawn) | 880
O=C(Nc1ccc(-c2ccc(-c3nc4ccccc4[nH]3)s2)cc1)c1ccncc1 | 790
CNC(=O)COc1ccc(Nc2nnc(-c3ccc(C)c(S(=O)(=O)NCC4CCCO4)c3)c3ccccc23)cc1 (stereo not drawn) | 930
COc1ccc2c(NN=Cc3ccc(OC)c4ccccc34)cc(C)nc2c1 | 600
CC(=O)c1ccc2c(c1)[C@H](NC(=O)c1cccc(Cl)c1Cl)[C@@H](CO)C(C)(C)O2 | 690
c1ccc(-c2nc(NCCCn3ccnc3)cc(-c3ccncc3)n2)cc1 | 170
CN1CCCN(Cc2cccc(-c3cccc(NC(=O)c4cccc(C#N)c4)c3)c2)CC1 | 820
CN(c1ccc2c(c1)nc(Nc1cc(C(C)(C)C)on1)n2C)c1ccnc(Nc2ccc(CS(C)(=O)=O)cc2)n1 | 900
CN(Cc1cccc(F)c1)C1CCCN(c2cc(NC(=O)c3ccccc3)ccn2)C1 (stereo not drawn) | 920
CC1CN(Cc2cccc(F)c2)CCN1c1ccc(NC(=O)c2ccc(F)cc2)cc1 (stereo not drawn) | 580

SMILES | IC50 [nM]
CCC1(C)CC(CCNCc2ccccc2O)(c2ccccc2OC)CCO1 (stereo not drawn) | 720
O=C(/C=C/c1ccccc1Cl)NC1CCC(CN2CCC(c3c[nH]c4ccncc34)CC2)CC1 (stereo not drawn) | 330
CC(Cc1ccc(OCCN2CCN(c3ccccc3)CC2)cc1)NCC(O)c1cccc(Cl)c1F (stereo not drawn) | 870
Cc1cc(NC(=O)NCCN2CCC(NS(=O)(=O)c3ccccc3Cl)C2)c2ccccc2n1 (stereo not drawn) | 820
N#Cc1ccc2c(c1)CCN(CCC1CCC(NC(=O)c3cc4ccccc4[nH]3)CC1)CC2 (stereo not drawn) | 1010
CN(C)c1ccc2c(c1)Sc1cc(N(C)C)ccc1N2C(=O)CCCC(=O)O | 800
O=C(NCCCCN1CCC(c2ccc3c(c2OCC2COCO2)CCCC3)CC1)c1ccc(-c2ccc(C(F)(F)F)cc2)cc1 (stereo not drawn) | 870
Cc1cc(N(CCO)CCCN2CCCCC2)nc(Nc2ccc(Cl)cc2)n1 | 550
COc1ccc(-c2ccc(NC(=O)c3cccc(Cl)c3)c(F)c2)cc1CN1CCCN(C)CC1 | 680
Cc1cc(NCC(c2ccccc2)c2ccccc2)nc(NCc2ccc(C(F)(F)F)cc2)n1 | 250
Cc1cc(N[C@@H](Cc2ccccc2)C(=O)NCCc2ccccc2)nc(NCC2CCCCC2)n1 | 920
Cc1ccc2nc(C)cc(NN=Cc3cccc(F)c3)c2c1 | 630
CCCCCCCN(Cc1ccc(OC(C)(C)C(=O)OCC)cc1)C(=O)Nc1ccccc1OCC | 1030
Cc1ccc(Nc2nccc(Nc3ccc4c(C)[nH]nc4c3)n2)cc1F | 780
O=C(N[C@H]1CCN(Cc2ccc(OCCCN3CCCCC3)cc2)C1)c1ccc2ccccc2c1 | 760
Cc1cc(NC(=O)NCCN2CCC(NS(=O)(=O)c3ccccc3F)CC2)c2ccccc2n1 | 950
CN(C)c1cccc(CN2CC=C(c3c[nH]c4ccc(Cl)cc34)CC2)c1 | 660
O=C(CCCCCNC(=O)c1ccc(O)c(-c2ccc(Cl)c(Cl)c2)c1)NC1CCCc2ccccc21 (stereo not drawn) | 760
CCCCCN1C(=O)N(c2ccc(Cl)c(Cl)c2)C(N(O)C(=O)Nc2ccc(Cl)c(Cl)c2)C1(C)C (stereo not drawn) | 550
Cc1ccc(C)c(Cn2ccc3nc(N)nc(N)c32)c1 | 300
Cc1cc(N)c2cc(NC(=O)c3cc4ccccc4s3)ccc2n1 | 110
COc1cc(-c2nc(-c3ccccc3)c(-c3ccccc3)[nH]2)ccc1OCCN(C)C | 300
COc1ccc(CNCCCCCNCc2ccc(Cl)c(Cl)c2)cc1Cl | 750
